Results taken from patent publication US20230173075A1, “ENCAPSULATED COMPOSITIONS AND USE OF OCTENYLSUCCINIC ANHYDRIDE STARCH AS EMULSIFYING AGENT” (Kansas State University Research Foundation, priority 2020, published 2023).

Key:
[1] = X-ray diffraction (XRD) physical state; assay type: physicochemical; conditions: Example 2 (CU), fresh
Protocol: The physical state of the spray-dried emulsions samples was obtained with an X-ray diffractometer (APD 3520, Philips, Netherlands). The instrument was operated at 35 kV, 20 mA with Cu-Kα radiation, a theta-compensating slit, and a diffracted beam monochromator. Data were recorded between the diffraction angles (2θ) of 2° and 35°. Differential scanning calorimetry (DSC) measurement of spray dried drug powder was studied with the TA instrument Q200 V24.4 (New Castle, Del., USA) in a range of −20 to 120° C. under nitrogen flow of 70 mL/min. The spray-dried emulsions powder (3-5 mg) was accurately weighed into DSC stainless steel pan. An empty pan was used as a reference. The heating rate of 10° C./min was used.
The physical state of the spray-dried emulsions samples was obtained with an X-ray diffractometer (APD 3520, Philips, Netherlands). The instrument was operated at 35 kV, 20 mA with Cu-Kα radiation, a theta-compensating slit, and a diffracted beam monochromator. Data were recorded between the diffraction angles (2θ) of 2° and 35°.

[2] = FF in a hard gelatin capsule, launched 1975; cited from earlier work

XRD physical state [1] | SMILES | maximum bioavailability [2] [%]
crystalline form | COc1cc(/C=C/C(=O)CC(=O)/C=C/c2ccc(O)c(OC)c2)ccc1O [CU, Curcumin] | –
– | CC(C)OC(=O)C(C)(C)Oc1ccc(C(=O)c2ccc(Cl)cc2)cc1 [FF, Fenofibrate] | 60
